Source: patent publication US9090651B2, “Helix 12 directed pharmaceutical products” (ENDORECHERCHE, INC., priority 2004, dated 2015)

Columns and labels:
[1] = tested on: rat prostate; assay: Systemic antiandrogenic activity, orchidectomized immature male rats with DHT implant: prostate weight; type: in vivo; settings: for inhibition in vivo at 0.5 mg: Rattus norvegicus, sc, 168 h, read-out: IN VIVO Rat s.c. (+DHT) Prostate % inhibition, s.c., 0.5 mg/animal once daily for 7 days, +DHT
Protocol: (§1) Immature male rats (Crl:CD(SD)Br) 22 to 24-day old were obtained from Charles-River, Inc. (St-Constant, Quebec, Canada) and housed up to 5 per cage in plastic bins in a temperature (23±1° C.)- and light (12 h light/day, lights on at 7 h15)-controlled environment. The rats were fed rodent chow and tap water ad libitum. The day following their arrival, the animals were orchidectomized (CX) under Isoflurane anesthesia via scrotal route and randomly assigned to groups of 5 animals.
(§2) Compounds were solubilized (when possible) in dimethylsulfoxide (DMSO, 10% final concentration) and administered as suspension in 0.4% methylcellulose. […] One group of animals received the antiandrogen Flutamide as reference. The animals were killed by cervical dislocation under isoflurane anesthesia on the 8th morning following castration. The ventral prostate and seminal vesicles were rapidly dissected and weighed.
(§3) W is the weight of the prostate or the seminal vesicle.

[2] = tested on: Shionogi mouse mammary carcinoma cells; assay: Androgenic/antiandrogenic activity on DHT-stimulated Shionogi cell growth; type: cell-based; settings: Mus musculus, read-out: Shionogi Antiandrogenic activity IC50 (nM), inhibition of DHT-stimulated Shionogi cell number
[3] = tested on: rat seminal vesicle; assay: Systemic antiandrogenic activity, orchidectomized immature male rats with DHT implant: seminal vesicle weight; type: in vivo; settings: for inhibition in vivo at 0.5 mg: Rattus norvegicus, sc, 168 h, read-out: IN VIVO Rat s.c. (+DHT) SV % inhibition, s.c., 0.5 mg/animal once daily for 7 days, +DHT
Protocol: as §1, §2, §3

[4] = biological target: T1, Human Androgen Receptor (Homo sapiens, UniProt P10275); assay: Androgen receptor binding assay (hydroxylapatite, [3H]R1881, cytosol of transfected HEK-293 cells); settings: % RBA=100×IC50 R1881/IC50 compound, transfected cells
T1 sequence (P10275 1-920): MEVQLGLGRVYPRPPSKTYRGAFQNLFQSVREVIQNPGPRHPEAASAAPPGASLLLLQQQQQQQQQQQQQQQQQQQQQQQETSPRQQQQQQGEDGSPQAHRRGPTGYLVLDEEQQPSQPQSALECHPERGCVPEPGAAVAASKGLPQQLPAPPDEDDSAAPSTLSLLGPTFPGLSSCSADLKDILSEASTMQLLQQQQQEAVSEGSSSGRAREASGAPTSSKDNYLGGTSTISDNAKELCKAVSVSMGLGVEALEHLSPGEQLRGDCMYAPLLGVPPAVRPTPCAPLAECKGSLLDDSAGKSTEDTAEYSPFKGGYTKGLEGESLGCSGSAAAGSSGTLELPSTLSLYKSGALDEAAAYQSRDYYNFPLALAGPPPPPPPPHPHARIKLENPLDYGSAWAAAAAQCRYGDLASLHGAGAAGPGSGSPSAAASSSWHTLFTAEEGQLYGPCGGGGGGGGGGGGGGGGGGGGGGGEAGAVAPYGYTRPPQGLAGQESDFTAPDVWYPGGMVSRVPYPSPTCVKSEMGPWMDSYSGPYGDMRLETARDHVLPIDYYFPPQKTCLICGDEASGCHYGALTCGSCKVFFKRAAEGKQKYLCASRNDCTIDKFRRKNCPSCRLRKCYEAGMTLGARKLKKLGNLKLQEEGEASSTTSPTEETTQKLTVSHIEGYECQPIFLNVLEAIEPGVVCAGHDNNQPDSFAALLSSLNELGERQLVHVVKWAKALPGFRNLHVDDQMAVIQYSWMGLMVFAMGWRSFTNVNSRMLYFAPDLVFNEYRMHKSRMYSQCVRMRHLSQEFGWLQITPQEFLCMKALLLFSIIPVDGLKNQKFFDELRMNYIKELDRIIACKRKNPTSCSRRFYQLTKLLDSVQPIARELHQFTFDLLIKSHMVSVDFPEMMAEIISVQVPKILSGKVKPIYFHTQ

Q: With `CCC(NC1CCCC1)c1cccc(OCC[C@]23CCC4C5CCC(=O)C=C5C[C@@H](C)C4C2CC[C@@H]3O)c1` (mixture of isomers) [EM-6681] as the molecule, how does the inhibition in vivo at 0.5 mg [1] read?
A: Its inhibition in vivo at 0.5 mg is 15%.

Q: What about the IC50 [2] of the same molecule?
A: The IC50 was 1.1 nM.

Q: And the inhibition in vivo at 0.5 mg [3]?
A: The inhibition in vivo at 0.5 mg was 19%.

Q: And the “Androgen Receptor Binding (%) Human RBA R1881 = 100” value [4]?
A: Its value is 56%.

Q: `CCC(NC1CCCC1)c1cccc(OCC[C@]23CCC4C5CCC(=O)C=C5C[C@@H](C)C4C2CC[C@]3(C)O)c1` (mixture of isomers) [EM-6733] was tested. Which inhibition in vivo at 0.5 mg [1] did it give?
A: Its inhibition in vivo at 0.5 mg is 34%.

Q: And the “IN VIVO Rat (+DHT) Prostate % inhibition (per os)” value [1]?
A: The value was 34%.

Q: And the IC50 [2]?
A: Its IC50 is 1.3 nM.

Q: What about the “IN VIVO Rat (+DHT) SV % inhibition (per os)” value [3] of the same molecule?
A: Its value is 6%.

Q: And the “Androgen Receptor Binding (%) Human RBA R1881 = 100” value [4]?
A: Its value is 62%.

Q: How did the inhibition in vivo at 0.5 mg [1] turn out when `CCC(CC)N(C)C(CC)c1cccc(OCC[C@]23CCC4=C5CCC(=O)C=C5CCC4C2CC[C@@H]3O)c1` (mixture of isomers) [EM-6860] was run?
A: The inhibition in vivo at 0.5 mg was 12%.

Q: What about the IC50 [2] of the same molecule?
A: The IC50 was 5.2 nM.

Q: What about the inhibition in vivo at 0.5 mg [3] of the same molecule?
A: The inhibition in vivo at 0.5 mg was 0%.

Q: What about the “Androgen Receptor Binding (%) Human RBA R1881 = 100” value [4] of the same molecule?
A: Its value is 33%.

Q: How did the inhibition in vivo at 0.5 mg [1] turn out when `CCCC(NC(CC)CC)c1cccc(OCC[C@]23CCC4C5CCC(=O)C=C5C(C)(C)CC4C2CC[C@]3(C)O)c1` (mixture of isomers) [EM-7075] was run?
A: The inhibition in vivo at 0.5 mg was 0%.

Q: And the IC50 [2]?
A: The IC50 was 9.7 nM.

Q: What about the inhibition in vivo at 0.5 mg [3] of the same molecule?
A: Its inhibition in vivo at 0.5 mg is 0%.

Q: And the “Androgen Receptor Binding (%) Human RBA R1881 = 100” value [4]?
A: Its value is 57%.

Q: Which inhibition in vivo at 0.5 mg [1] does the source give for `CCC(CC)N(C)C(CC)c1cccc(OCC[C@]23CCC4C5CCC(=O)C=C5C[C@@H](C)C4C2CC[C@]3(C)O)c1` (mixture of isomers) [EM-7127] here?
A: The inhibition in vivo at 0.5 mg was 20%.

Q: And the IC50 [2]?
A: Its IC50 is 0.91 nM.

Q: What about the inhibition in vivo at 0.5 mg [3] of the same molecule?
A: Its inhibition in vivo at 0.5 mg is 0%.

Q: And the “Androgen Receptor Binding (%) Human RBA R1881 = 100” value [4]?
A: The value was 128%.

Q: How did the inhibition in vivo at 0.5 mg [1] turn out when `CCCC(NC(CC)CC)c1cccc(OCC[C@]23CCC4C5CCC(=O)C=C5C[C@@H](C)C4C2CC[C@@H]3O)c1` (mixture of isomers) [EM-7128] was run?
A: The inhibition in vivo at 0.5 mg was 41%.

Q: What about the IC50 [2] of the same molecule?
A: Its IC50 is 0.75 nM.

Q: What about the inhibition in vivo at 0.5 mg [3] of the same molecule?
A: The inhibition in vivo at 0.5 mg was 2%.

Q: And the “Androgen Receptor Binding (%) Human RBA R1881 = 100” value [4]?
A: Its value is 120%.

Q: For `CCCC(NC(CC)CC)c1cccc(OCC[C@]23CCC4C5CCC(=O)C=C5C[C@@H](C)C4C2CC[C@]3(C)O)c1` (mixture of isomers) [EM-7129], which inhibition in vivo at 0.5 mg [1] is on record?
A: Its inhibition in vivo at 0.5 mg is 37%.

Q: What about the IC50 [2] of the same molecule?
A: Its IC50 is 0.96 nM.

Q: And the inhibition in vivo at 0.5 mg [3]?
A: Its inhibition in vivo at 0.5 mg is 10%.

Q: What about the “Androgen Receptor Binding (%) Human RBA R1881 = 100” value [4] of the same molecule?
A: The value was 197%.

Q: Which inhibition in vivo at 0.5 mg [1] does the source give for `CCCC(NC(C)C)c1cccc(OCC[C@]23CCC4C(CCC5=CC(=O)CC[C@@]54C)C2CC[C@]3(C)O)c1` (mixture of isomers) [EM-7133] here?
A: Its inhibition in vivo at 0.5 mg is 32%.

Q: What about the IC50 [2] of the same molecule?
A: The IC50 was 1.1 nM.

Q: What about the inhibition in vivo at 0.5 mg [3] of the same molecule?
A: Its inhibition in vivo at 0.5 mg is 40%.

Q: And the “Androgen Receptor Binding (%) Human RBA R1881 = 100” value [4]?
A: Its value is 55%.

Q: For `CCCC(NC(C)C)c1cccc(OCC[C@]23C=CC4=C5CCC(=O)C=C5CCC4C2CC[C@@]3(C)O)c1` (mixture of isomers) [EM-7164], which IC50 [2] is on record?
A: The IC50 was 6 nM.

Q: What about the inhibition in vivo at 0.5 mg [3] of the same molecule?
A: Its inhibition in vivo at 0.5 mg is 0%.

Q: And the “Androgen Receptor Binding (%) Human RBA R1881 = 100” value [4]?
A: Its value is 27%.

Q: For `C[C@@H]1CC2=CC(=O)CCC2C2CC[C@@]3(CCOc4cccc(C[S+]([O-])c5ccccc5)c4)C(CC[C@]3(C)O)C21` (mixture of isomers) [EM-7230], which inhibition in vivo at 0.5 mg [1] is on record?
A: Its inhibition in vivo at 0.5 mg is 0%.

Q: What about the inhibition in vivo at 0.5 mg [3] of the same molecule?
A: Its inhibition in vivo at 0.5 mg is 0%.

Q: And the “Androgen Receptor Binding (%) Human RBA R1881 = 100” value [4]?
A: The value was 39%.

Q: With `CC(NC1CCCCC1)c1cccc(OCC[C@]23CCC4C(CCC5C/C(=N\O)CC[C@@]54C)C2CC[C@@H]3O)c1` (stereo partly shown) [EM-6418] as the molecule, how does the inhibition in vivo at 0.5 mg [1] read?
A: The inhibition in vivo at 0.5 mg was 21%.

Q: And the “IN VIVO Rat (+DHT) Prostate % inhibition (per os)” value [1]?
A: Its value is 16%.

Q: And the IC50 [2]?
A: Its IC50 is 5 nM.

Q: And the inhibition in vivo at 0.5 mg [3]?
A: Its inhibition in vivo at 0.5 mg is 13%.

Q: What about the “IN VIVO Rat (+DHT) SV % inhibition (per os)” value [3] of the same molecule?
A: The value was 32%.

Q: What about the “Androgen Receptor Binding (%) Human RBA R1881 = 100” value [4] of the same molecule?
A: Its value is 31%.

Q: What does the source list for `C[C@]1(O)CCC2C3CCC4=CC(=O)CCC4C3CC[C@@]21CCOc1cccc(CN2CCCCC2)c1` (stereo partly shown) [EM-6654]?
A: inhibition in vivo at 0.5 mg [1]: 0%; IC50 [2]: 9.5 nM; Androgen Receptor Binding (%) Human RBA R1881 = 100 [4]: 25%

Q: For `CCC(Cc1cccc(OCC[C@]23CCC4C5CCC(=O)C=C5CCC4C2CC[C@@H]3O)c1)NC1CCCC1` (stereo partly shown) [EM-6753], which inhibition in vivo at 0.5 mg [1] is on record?
A: The inhibition in vivo at 0.5 mg was 0%.

Q: What about the IC50 [2] of the same molecule?
A: The IC50 was 19 nM.

Q: What about the “Androgen Receptor Binding (%) Human RBA R1881 = 100” value [4] of the same molecule?
A: Its value is 8.2%.

Q: For `CCC(NC1CCCC1)c1cc(F)cc(OCC[C@]23CCC4C(CCC5CC(=O)CC[C@@]54C)C2CC[C@@H]3O)c1` (stereo partly shown) [EM-6761], which inhibition in vivo at 0.5 mg [1] is on record?
A: Its inhibition in vivo at 0.5 mg is 33%.

Q: What about the IC50 [2] of the same molecule?
A: Its IC50 is 1.2 nM.

Q: What about the inhibition in vivo at 0.5 mg [3] of the same molecule?
A: Its inhibition in vivo at 0.5 mg is 0%.

Q: And the “Androgen Receptor Binding (%) Human RBA R1881 = 100” value [4]?
A: The value was 141%.
